Tested on: SKBR3 (breast cancer cell line)
Experiment: In vitro cell killing activity of ADCs, SKBR3
Assay type: cell-based
Conditions: Homo sapiens, SK-BR-3, incubation 72 hours, ADC DAR 8.0
Excerpt: Referring to the process of Example 13, the linker-drug conjugate mc-AAN-Exatecan was conjugated to a HER2 antibody, an EGFR antibody, and a non-specific binding antibody (Anti-HEL) respectively to prepare the corresponding ADCs. […] The cell killing activity was detected.

CC[C@@]1(O)C(=O)OCc2c1cc1n(c2=O)Cc2c-1nc1cc(F)c(C)c3c1c2[C@@H](N)CC3 [Extecan, Exatecan]
IC50: 2.02 nM

From patent EP4659764A1, “LINKER DRUG, AND PREPARATION METHOD AND USE OF ANTIBODY-DRUG CONJUGATE THEREOF” (Lepu Biopharma Co., Ltd., priority 2023, dated 2024)
